From article PMC10991509, “A phase I study of ATR inhibitor gartisertib (M4344) as a single agent and in combination with carboplatin in patients with advanced solid tumours” (British Journal of Cancer, 2024)

Test system: advanced solid tumours
Assay: Antitumour activity (RECIST v1.1)
Type: in vivo, human
Text: The secondary objectives for cohorts A, A2, and B1 were to assess antitumour activity and PK. Endpoints associated with antitumour activity included confirmed best overall response (BOR), according to RECIST v1.1. PK endpoints included PK parameter estimates, derived from plasma concentration-time data. Please see the Supplementary Materials for details on further PK endpoints and assessments as well as the PK assessment schedule (Supplementary Table S2).
In cohort C, the primary objectives were to evaluate safety, tolerability, and antitumour activity of gartisertib monotherapy in patients with LOF mutations in ARID1A (cohort C1), ATRX and/or DAXX (cohort C2), or ATM (cohort C3). The primary endpoints included safety (treatment-emergent AEs [TEAEs] and treatment-related TEAEs; laboratory abnormalities; clinically significant abnormal vital signs; and clinically significant abnormal ECGs and antitumour activity (objective response [OR], defined as confirmed BOR of complete response [CR] or partial response [PR], according to RECIST v1.1). Secondary endpoints included duration of response; progression-free survival [PFS]) as well as PK parameter estimates of gartisertib in patients with LOF mutations. The Supplementary Materials provide further information on efficacy assessments and definitions.
In cohorts A, A2, B1, and C, antitumor activity was assessed in patients with measurable disease with standard criteria (Response Evaluation Criteria in Solid Tumors version 1.1 [RECIST v1.1]). In patients with prostate cancer, Prostate Cancer Clinical Trials Working Group 2 (PCWG2) criteria were used. Patients underwent an imaging scan at screening to document extent of initial disease and in all cohorts of the study, patients underwent repeat imaging scans. Imaging scans were locally assessed for all study cohorts. Bone scans were performed as were evaluations of serum […] in patients with ovarian cancer and serum prostate-specific antigen in patients with prostate cancer.
In addition, for cohort C, tumor assessments according to RECIST v1.1 were performed at baseline and at completion of every two cycles of treatment for the first six cycles and then every three cycles thereafter until disease progression or initiation of a new anticancer therapy line. Objective response, best overall response, duration of response and progression-free survival will be determined by the investigator based on these tumor assessments, with objective responses needing to be confirmed at a scan no fewer than 4 weeks after the original evaluation. Independent review may be performed if necessary.
Objective response was defined as a confirmed assessment of complete response or partial response by the investigator using RECIST v1.1. Confirmed best overall response was defined as the best confirmed response from start of treatment. Tumor assessments performed after start of further anticancer treatment line were not used to determine best overall response. Progression-free survival was defined as the time between the start of study treatment to progressive disease (PD) or death (in case PD is not observed prior to death).

Nc1nn2cc(F)cnc2c1C(=O)Nc1cncc(F)c1N1CCC(C(=O)N2CCN(C3COC3)CC2)CC1 [gartisertib, Gartisertib]
cBOR Not evaluable (Cohort A2, 100 mg BID (N=7)): 2 (28.6) n patients (%)
cBOR Partial response (Cohort A2, 100 mg BID (N=7)): 0 (0.0) n patients (%)
cBOR Progressive disease (Cohort A2, 100 mg BID (N=7)): 4 (57.1) n patients (%)
cBOR Stable disease (Cohort A2, 100 mg BID (N=7)): 1 (14.3) n patients (%)
cBOR Not evaluable (Cohort A2, 150 mg QD (N=4)): 0 (0.0) n patients (%)
cBOR Partial response (Cohort A2, 150 mg QD (N=4)): 0 (0.0) n patients (%)
cBOR Progressive disease (Cohort A2, 150 mg QD (N=4)): 3 (75.0) n patients (%)
cBOR Stable disease (Cohort A2, 150 mg QD (N=4)): 1 (25.0) n patients (%)
cBOR Not evaluable (Cohort A2, 250 mg QD (N=7)): 0 (0.0) n patients (%)
cBOR Partial response (Cohort A2, 250 mg QD (N=7)): 0 (0.0) n patients (%)
cBOR Progressive disease (Cohort A2, 250 mg QD (N=7)): 3 (42.9) n patients (%)
cBOR Stable disease (Cohort A2, 250 mg QD (N=7)): 4 (57.1) n patients (%)
cBOR Not evaluable (Cohort A2, 350 mg QD (N=5)): 0 (0.0) n patients (%)
cBOR Partial response (Cohort A2, 350 mg QD (N=5)): 0 (0.0) n patients (%)
cBOR Progressive disease (Cohort A2, 350 mg QD (N=5)): 3 (60.0) n patients (%)
cBOR Stable disease (Cohort A2, 350 mg QD (N=5)): 2 (40.0) n patients (%)
cBOR Not evaluable (Cohort A, 10 mg BIW (N=1)): 1 (100.0) n patients (%)
cBOR Partial response (Cohort A, 10 mg BIW (N=1)): 0 (0.0) n patients (%)
cBOR Progressive disease (Cohort A, 10 mg BIW (N=1)): 0 (0.0) n patients (%)
cBOR Stable disease (Cohort A, 10 mg BIW (N=1)): 0 (0.0) n patients (%)
cBOR Not evaluable (Cohort A, 20 mg BIW (N=1)): 0 (0.0) n patients (%)
cBOR Partial response (Cohort A, 20 mg BIW (N=1)): 0 (0.0) n patients (%)
cBOR Progressive disease (Cohort A, 20 mg BIW (N=1)): 0 (0.0) n patients (%)
cBOR Stable disease (Cohort A, 20 mg BIW (N=1)): 1 (100.0) n patients (%)
cBOR Not evaluable (Cohort A, 40 mg BIW (N=1)): 0 (0.0) n patients (%)
cBOR Partial response (Cohort A, 40 mg BIW (N=1)): 0 (0.0) n patients (%)
cBOR Progressive disease (Cohort A, 40 mg BIW (N=1)): 1 (100.0) n patients (%)
cBOR Stable disease (Cohort A, 40 mg BIW (N=1)): 0 (0.0) n patients (%)
cBOR Not evaluable (Cohort A, 80 mg BIW (N=1)): 0 (0.0) n patients (%)
cBOR Partial response (Cohort A, 80 mg BIW (N=1)): 0 (0.0) n patients (%)
cBOR Progressive disease (Cohort A, 80 mg BIW (N=1)): 1 (100.0) n patients (%)
cBOR Stable disease (Cohort A, 80 mg BIW (N=1)): 0 (0.0) n patients (%)
cBOR Not evaluable (Cohort A, 160 mg BIW (N=1)): 0 (0.0) n patients (%)
cBOR Partial response (Cohort A, 160 mg BIW (N=1)): 0 (0.0) n patients (%)
cBOR Progressive disease (Cohort A, 160 mg BIW (N=1)): 1 (100.0) n patients (%)
cBOR Stable disease (Cohort A, 160 mg BIW (N=1)): 0 (0.0) n patients (%)
cBOR Not evaluable (Cohort A, 300 mg BIW (N=1)): 0 (0.0) n patients (%)
cBOR Partial response (Cohort A, 300 mg BIW (N=1)): 0 (0.0) n patients (%)
cBOR Progressive disease (Cohort A, 300 mg BIW (N=1)): 1 (100.0) n patients (%)
cBOR Stable disease (Cohort A, 300 mg BIW (N=1)): 0 (0.0) n patients (%)
cBOR Not evaluable (Cohort A, 450 mg BIW (N=3)): 0 (0.0) n patients (%)
cBOR Partial response (Cohort A, 450 mg BIW (N=3)): 0 (0.0) n patients (%)
cBOR Progressive disease (Cohort A, 450 mg BIW (N=3)): 1 (33.3) n patients (%)
cBOR Stable disease (Cohort A, 450 mg BIW (N=3)): 2 (66.7) n patients (%)
cBOR Not evaluable (Cohort A, 700 mg BIW (N=6)): 2 (33.3) n patients (%)
cBOR Partial response (Cohort A, 700 mg BIW (N=6)): 0 (0.0) n patients (%)
cBOR Progressive disease (Cohort A, 700 mg BIW (N=6)): 2 (33.3) n patients (%)
cBOR Stable disease (Cohort A, 700 mg BIW (N=6)): 2 (33.3) n patients (%)
cBOR Not evaluable (Cohort A, 1050 mg BIW (N=7)): 1 (14.3) n patients (%)
cBOR Partial response (Cohort A, 1050 mg BIW (N=7)): 0 (0.0) n patients (%)
cBOR Progressive disease (Cohort A, 1050 mg BIW (N=7)): 5 (71.4) n patients (%)
cBOR Stable disease (Cohort A, 1050 mg BIW (N=7)): 1 (14.3) n patients (%)
cBOR Not evaluable (Cohort A, 1200 mg BIW (N=4)): 2 (50.0) n patients (%)
cBOR Partial response (Cohort A, 1200 mg BIW (N=4)): 0 (0.0) n patients (%)
cBOR Progressive disease (Cohort A, 1200 mg BIW (N=4)): 1 (25.0) n patients (%)
cBOR Stable disease (Cohort A, 1200 mg BIW (N=4)): 1 (25.0) n patients (%)
cBOR Not evaluable (Cohort C, 250 mg QD (N=13)): 2 (15.4) n patients (%)
cBOR Partial response (Cohort C, 250 mg QD (N=13)): 0 (0.0) n patients (%)
cBOR Progressive disease (Cohort C, 250 mg QD (N=13)): 8 (61.5) n patients (%)
cBOR Stable disease (Cohort C, 250 mg QD (N=13)): 3 (23.1) n patients (%)
BOR of SD (cohort A2 (full analysis set 23)): 34.8%
BOR of SD (cohort A (full analysis set 26)): 26.9%
BOR of SD (cohort C (full analysis set 13)): 23.1%
median PFS interval (cohort C, 95% CI 0.8, 2.1): 1.6 months
disease control according to selected biomarker status (ARID1A, ATRX/DAXX, ATM) (cohorts A2 and C): No difference in disease control
patients with SD for >6 months (three patients across all study cohorts): 3.1%
